In PubChem BioAssay AID602211 (Sanford-Burnham Center for Chemical Genomics, 2012):
The source made the active and inactive calls.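 The calls were made as follows: active = mean IC50 at or below 10 µM; inactive = the rest.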

These compounds were tested on H9c2 cardiomyocytes, H2O2 protection, ATPLite viability, 2 h (assay: H2O2-induced H9c2 cell death suppression – ATPLite luminescence, set 2, dose response (AID 602211);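 also: potency is for protection so actives keep ATP signal up against peroxide killing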).
For `CCOc1ccccc1N1CC(O)=C(c2nc3ccccc3s2)C1=N`, the IC50 was > 79 µM (inactive). In the case of `COc1ccnc(Oc2ccccc2)c1C(=O)N/C=N/OCc1ccc(F)cc1Cl`, the IC50 is reported as > 79 µM (inactive). Work on `C[C@H](NC(=O)c1nc[nH]c1C(=O)NCC(=O)OCc1ccccc1)c1ccccc1` yielded an IC50 of 1.6 µM. With `N#Cc1c(-c2ccco2)cc(-c2cccnc2)nc1N` the IC50 was 11 µM (inactive). Work on `COc1cc(/C=C/c2nc3ccccc3c(=O)n2-c2ccccc2O)ccc1O` yielded an IC50 of 9.9 µM. With `C=CCOC(=O)C1=C[C@H](c2cn(C(C)=O)c3ccccc23)C[C@H](OCc2ccc(CO)cc2)O1` the IC50 was 9.81 µM. For `COc1cc(/C=N\NC(=O)c2cccnc2)ccc1OC(=O)c1ccccc1Cl`, the IC50 was 30 µM (inactive). Work on `c1ccc(N2CCOCC2)c(Nc2nc3ccccc3n3cnnc23)c1` yielded an IC50 of 5.28 µM. `CC(C)OCCCNC(=O)CCC(=O)NNc1nc2ccccc2c2nc(-c3ccccc3)nn12` was tested, and the IC50 was 19.8 µM (inactive). For `CCn1cc(C(=O)Nc2cccc(NC(C)=O)c2)c2cc(OC)c(OC)cc2c1=O`, the IC50 was 16.1 µM (inactive). In the case of `COc1cc(/C=N/NC(=O)c2cccnc2)ccc1OCC(=O)Nc1ccccc1Cl`, the IC50 is reported as 1.78 µM. Compound `O=C(c1ccc(-c2nc3ccccc3s2)o1)N1CCN(c2ccccc2O)CC1` has an IC50 of 5.48 µM. `CCCOc1ccc2[nH]c(C(=O)N/N=C/c3cc(OC)c(OC)c(OC)c3)cc2c1` gave an IC50 of 4.04 µM. With `COCCn1c(=NC(=O)c2nc3ccccc3s2)sc2cc(S(C)(=O)=O)ccc21` the IC50 was 1.4 µM. For `COc1cc2nc(Nc3ccc(F)cc3)nc(N)c2cc1OC`, the IC50 was 4.24 µM. For `COc1ccccc1-c1cc(NC=O)c2ncc(-c3cccc(C(C)=O)c3)n2c1`, the IC50 was 8.53 µM. `COc1cc2nc(C3CCC3)nc(N3CCN(c4ccccn4)CC3)c2cc1OC` was tested, and the IC50 was > 79 µM (inactive). `Cc1cccc(NC(=O)c2nc[nH]c2C(=O)NCC(=O)OCc2ccccc2)c1` showed an IC50 of 3.54 µM. With `COc1ccc2occ(C(=O)c3coc4ccc(O)c(CN(C)C)c34)c2c1` the IC50 was 4.32 µM. `Fc1ccc(-n2cc(-c3ccccc3)c3c(N4CCOCC4)ncnc32)cc1` was tested, and the IC50 was 6.27 µM. For `Cc1ncc(CO)c2cc(C(=O)Nc3ccccc3Cl)c(=Nc3cccc(C(N)=O)c3)oc12`, the IC50 was 0.51 µM. For `COc1cc2[nH]c(=O)n3nc(-c4ccccc4)nc3c2cc1OC`, the IC50 was 11 µM (inactive). In the case of `COc1ccc(Nc2nnc(-c3ccc(O)cc3)c3ccccc23)cc1C(N)=O`, the IC50 is reported as 11.3 µM (inactive). Work on `CCOC(=O)C1=C(C)Nc2ccccc2N=C1NC(=O)c1oc2ccccc2c1COC` yielded an IC50 of 2.89 µM. With `CC(=O)Nc1cccc(NC(=O)c2cc(-c3cccnc3)nc3ccc(Cl)cc23)c1` the IC50 was 2.24 µM. Work on `COC(=O)c1[nH]c2cc(OC)c(OC)cc2c1/C=N/Nc1ccccc1` yielded an IC50 of 6.78 µM. Work on `COc1ccc(-c2csc(NC(=O)CCCc3nc4ccccc4c(=O)[nH]3)n2)cc1OC` yielded an IC50 of 3.42 µM. With `Cc1ccc2nc(-c3ccccc3)cc(C(=O)NNC(=O)c3csc(N4CCOCC4)n3)c2c1` the IC50 was 15 µM (inactive). For `CC(=O)Nc1ccc(NS(=O)(=O)c2cc(-c3n[nH]c(=O)c4ccccc34)ccc2C)cc1`, the IC50 was 3.65 µM. `CC(C)=NNc1cnnc2ccc([N+](=O)[O-])cc12` gave an IC50 of 4.85 µM. `COc1cc(/C=C/c2nnc3c4ccccc4ncn23)cc(OC)c1OC` showed an IC50 of 4.47 µM. In the case of `COc1cccc(Nc2nc(-c3sc(NC(=O)c4ccco4)nc3C)cs2)c1`, the IC50 is reported as 7.15 µM. For `CCN(CC)C(=O)c1ccc(-c2nnc(Nc3ccc(O)cc3)c3ccccc23)cc1`, the IC50 was 17.6 µM (inactive). `Clc1ccccc1-c1nc(N/N=C/c2cccnc2)c2ccccc2n1` showed an IC50 of 7.3 µM. With `O=C(NCC(=O)N(Cc1cccs1)C(C(=O)NC1CCCCC1)c1ccco1)c1ccco1` (stereo not given) the IC50 was 10.6 µM (inactive). In the case of `CC(C)(C)OC(=O)NCc1ccc(NC(=O)c2nc[nH]c2C(=O)NCCCCCCNC(=O)c2[nH]cnc2C(=O)Nc2ccc(CNC(=O)OC(C)(C)C)cc2)cc1`, the IC50 is reported as > 79 µM (inactive). For `COc1ccc(-c2cc(-c3nnc(COC(=O)C4CC4C)o3)c3ccccc3n2)cc1OC` (stereo not given), the IC50 was 3.86 µM. `O=C(Cn1nc(C(=O)O)c2ccccc2c1=O)c1c[nH]c2ccccc12` gave an IC50 of 3.53 µM. Compound `COc1ccc(-c2cc(NC(C)=O)c3ncc(-c4cccc(C(C)=O)c4)n3c2)cc1OC` has an IC50 of 7.18 µM. `CSc1nc2ncc3c(n2n1)CC1c2ccccc2CCN1C3=O` (stereo not given) was tested, and the IC50 was 23 µM (inactive). `CCOC(=O)c1ccccc1OCc1cc(/C=N/NC(=O)c2cccnc2)ccc1OC` was tested, and the IC50 was > 79 µM (inactive). In the case of `O=c1[nH]c(CSc2nnc(-c3cccnc3)n2C2CCCCC2)nc2ccccc12`, the IC50 is reported as 48.2 µM (inactive). `COc1ccc(N(Cc2cc3cc(OC)ccc3[nH]c2=O)C(=O)c2cccnc2)cc1` was tested, and the IC50 was 19.1 µM (inactive). For `CCOc1ncccc1C(=O)Nc1cccc(-c2nc3cccnc3s2)c1`, the IC50 was 3.51 µM. `CCOC(=O)C1CCN(c2cc3c(cc2NC(=O)c2ccc(OC)c(OC)c2)n(C)c(=O)n3C)CC1` gave an IC50 of 1.22 µM. Compound `CC(=O)c1ccc(N2CCN(C(=O)C3CCCN(c4ncnc5c4nc4n5CCCCC4)C3)CC2)cc1` (stereo not given) has an IC50 of 2.68 µM. With `O=C(CSc1nnc(Cc2cccs2)n1CCc1ccccc1)N1CCCc2ccccc21` the IC50 was > 79 µM (inactive). With `COc1cc(C(=O)N/N=C/c2sc(N3CCOCC3)nc2-c2ccccc2)cc(OC)c1OC` the IC50 was 16.9 µM (inactive). Compound `CC1(C)CC(=O)C2=C(C1)N(CCN1CCOCC1)C1=C(C(=O)CC(C)(C)C1)C2c1ccc(Cl)cc1` has an IC50 of 9.75 µM. `CCCc1cc(N2CCN(C(=O)c3ccco3)CC2)n2c(nc3ccccc32)c1C#N` was tested, and the IC50 was > 79 µM (inactive). With `COc1ccc(-c2cc(C(=O)N(C)Cc3ccc(OC)c(OC)c3OC)c3ccccc3n2)cc1OC` the IC50 was 4.04 µM. With `CCOCCCNC(=O)CCC(=O)NNc1nc2ccccc2c2nc(-c3ccccc3)nn12` the IC50 was 42.6 µM (inactive). With `C/C(=N\Nc1nnc2c3ccccc3n(C)c2n1)c1ccc(C)o1` the IC50 was 10.4 µM (inactive). `COc1cc(-c2cc(C(=O)N3CCN(c4ccccn4)CC3)c3ccccc3n2)cc(OC)c1OC` was tested, and the IC50 was 3.56 µM. For `C=C1C(C)C2C(Cc3ccccc3)NC(=O)C23OC(=O)/C=C/C(O)CCCC(C)C/C=C/C3C1O` (stereo not given), the IC50 was 0.611 µM. In the case of `COc1ccccc1CN(C)C(=O)c1cc(-c2cc(OC)c(OC)c(OC)c2)nc2ccccc12`, the IC50 is reported as > 79 µM (inactive). In the case of `COC(=O)c1ccc2c(=O)[nH]c(COC(=O)c3[nH]c(C)c(C(C)=O)c3C)nc2c1`, the IC50 is reported as 5.29 µM. Work on `CCN(CC(=O)Nc1ccc(OC)cc1)C(=O)c1cc(-c2cccs2)nn1-c1ccccc1` yielded an IC50 of 2.06 µM. With `CC(=O)NCc1ccc(-c2csc(NC(=O)CCc3nc4ccccc4c(=O)[nH]3)n2)s1` the IC50 was 4.3 µM. `O=C(NCc1ccco1)C(c1ccccc1)N(C(=O)Cc1cccs1)c1ccccc1F` (stereo not given) showed an IC50 of 3.52 µM. `O=C(COC(=O)c1ccccc1C(=O)OCC(=O)NCCc1c[nH]c2ccccc12)NCCc1c[nH]c2ccccc12` showed an IC50 of 4.86 µM. `CCOC(=O)c1cc(-c2nnc(-c3cc(OC)c(OC)c(OC)c3)o2)c(C)nc1C` was tested, and the IC50 was 2.25 µM. `COc1ccccc1NC(=O)COc1ccc(C(=O)OCC(=O)NC(C)(C)C)cc1OC` was tested, and the IC50 was 13.7 µM (inactive). For `CC(=O)Nc1cc(C)nn1-c1nc2ccccc2s1`, the IC50 was 14.6 µM (inactive). `CC(=O)Nc1cc(-c2cccc(C(=O)N(C)C)c2)cn2c(-c3ccc(C(C)=O)cc3)cnc12` showed an IC50 of 7.78 µM. `COc1cc(Nc2nc3ccccc3n3nnnc23)cc(OC)c1OC` gave an IC50 of 1.38 µM. With `O=C(C[C@H]1C/C=C\CC[C@H](Cc2ccc(F)cc2)C(=O)O[C@H](c2ccccc2)CNC1=O)N[C@H](CO)Cc1ccccc1` the IC50 was > 79 µM (inactive). In the case of `CC(C)(C)OC(=O)C[C@@H]1C/C=C\C[C@@H](CC(=O)N[C@H](CO)Cc2ccccc2)C(=O)NC[C@@H](c2ccccc2)OC1=O`, the IC50 is reported as 17.6 µM (inactive). Compound `CCN(CC)S(=O)(=O)c1ccc(Nc2nc3ccccc3n3nnnc23)cc1` has an IC50 of 4.92 µM. With `CCOCc1c(C(=O)NC2=Nc3ccccc3NC(CC)=C2C(=O)OCC)oc2ccccc12` the IC50 was > 79 µM (inactive). Compound `Cc1cccc(NC(=O)c2oc3ccc(S(=O)(=O)N4CCOCC4)cc3c2C)c1C` has an IC50 of 3.23 µM. `COc1ccc(CC(=O)N(Cc2ccccc2)c2ccccc2)cc1S(=O)(=O)N1CCOCC1` gave an IC50 of 2.24 µM. With `CCn1c(O)c(/C=N/N=C/c2ccccc2)c2ccc(C3=NNC(=O)CC3)cc21` the IC50 was 4.56 µM. In the case of `COc1ccc(CCCNC(=O)C2(C)Cc3c(-c4ccc(NC(C)=O)cc4)ccnc3O2)cc1` (stereo not given), the IC50 is reported as > 79 µM (inactive). For `COc1cc(/C=N/NC(=O)c2ccncc2)ccc1OC(=O)c1ccccc1Cl`, the IC50 was 5.67 µM. `COc1cccc(-c2cnc3c(NC(C)=O)cc(-c4cc(OC)c(OC)c(OC)c4)cn23)c1` was tested, and the IC50 was 3.27 µM. For `CC(=O)Nc1cc(-c2cccc(NS(C)(=O)=O)c2)cn2c(-c3cccc(C(C)=O)c3)cnc12`, the IC50 was 15 µM (inactive). With `COC(=O)c1cc(NC(=O)c2cc3ccccc3o2)cc(C(=O)OC)c1` the IC50 was 5.42 µM. In the case of `NS(=O)(=O)c1ccc(CCNC(=O)c2ccc(C#CC3(O)CCCCC3)cc2)cc1`, the IC50 is reported as > 79 µM (inactive). In the case of `COC(=O)c1ccccc1NC(=O)/C=C/c1cc(OC)c(OC)c(OC)c1`, the IC50 is reported as 10.9 µM (inactive). In the case of `COC(=O)c1ccccc1NC(=O)c1ccc2nccnc2c1`, the IC50 is reported as 50.6 µM (inactive). `Cc1c(/C=N/NC(=O)c2ccc(O)cc2)c2ccccn2c1C(=O)c1ccc(F)cc1` was tested, and the IC50 was 5.2 µM. `CCOc1ccccc1Nc1nnc(SCc2nnc(-c3cc(OC)c(OC)c(OC)c3)o2)s1` gave an IC50 of 9.01 µM. Work on `COc1ccc(Nc2nnc(SCc3cc(=O)n4ccsc4n3)s2)cc1` yielded an IC50 of 8.23 µM. `COc1ccc(COc2cc(-c3cccc(OC)c3)nc3ccc(NC(=O)c4ccc(OC)cc4)cc23)cc1` showed an IC50 of 2.42 µM. `COc1cc(CCNc2ccc3nnc(-c4ccccc4)n3n2)cc(OC)c1OC` showed an IC50 of 9.52 µM. In the case of `COC(=O)c1ccc(C(NC(=O)OCc2ccccc2)/C(C)=C/[C@@H](C)C(=O)NCc2ccc(OC)c(OC)c2)cc1` (stereo not given in full), the IC50 is reported as > 79 µM (inactive). `NC(=O)c1nsc(C(=O)N(c2ccccc2F)C(C(=O)NCc2ccc(F)cc2)c2ccc(O)cc2)c1N` (stereo not given) showed an IC50 of 0.94 µM. `Cn1c(=O)[nH]c(=O)c2c1nc(N(CCO)Cc1ccccc1)n2CCCc1ccccc1` was tested, and the IC50 was 11.3 µM (inactive). `Cc1ccccc1N(C(=O)c1snc(C(N)=O)c1N)C(C(=O)NCc1ccccc1)c1ccc(O)cc1` (stereo not given) showed an IC50 of 6.3 µM. With `CCOC(=O)c1c(C)[nH]c(O)c1C=Nc1ccc(Cl)cc1` the IC50 was 34.4 µM (inactive). `CCn1nc(C(=O)Nc2nc(-c3ccccn3)cs2)c2ccccc2c1=O` was tested, and the IC50 was 3.37 µM. `CC(C)c1cc(N2CCN(C(=O)c3ccco3)CC2)n2c(nc3ccccc32)c1C#N` was tested, and the IC50 was 44.8 µM (inactive). `COc1cc2c(C#CCCO)c(-c3ccsc3)oc(=O)c2cc1OC` gave an IC50 of 2.04 µM. `O=C(NCC(=O)N(Cc1cccs1)C(C(=O)NC1CCCCC1)c1ccco1)c1cccs1` (stereo not given) was tested, and the IC50 was 3.23 µM.
